Marks after values point to notes of the source that are not given here.
Key:
[1] = target: Tau (Homo sapiens, UniProt P10636); assay: Tau competition binding in human AD brain homogenate with 18F-labeled Tau binder; design: High affinity to Tau (IC50 in AD brain homogenate): key: −: poor; ∘: moderate; +: good; ++: very good; +++: excellent; conditions: determined with non-radioactive F-1, F-2, F-3a; for IC50: human AD brain homogenate, read-out: IC50 for tau binding in AD brain homogenate
Protocol: (§1) 20 μg of human Alzheimer disease brain homogenate was incubated with a dilution series of each test compound (1000 to 0.06 nM) in the presence of 800 Bq of ^18F-labeled Tau binder. The samples were shaken at 110 rpm for 45 min at 37° C. Samples were then filtered through GF/B 96 well filter plates and washed twice with 300 μL assay buffer (PBS containing 0.1% BSA and 2% DMSO). Thereafter, filter plates were sealed and a Fuji Film Imaging Plate (BAS-SR2025) was placed on top. The imaging plate was analyzed after overnight exposition using a Fuji Film BAS-5000. Non-specific signal was determined with samples containing ^18F-labeled Tau-reference binder in the presence of assay buffer without brain substrate and competitor. […] The unblocked ^18F-labeled Tau-binder signal was defined as total binding. IC50 values were calculated by Prism V6 (GraphPad) setting total binding to 100%.

[2] = target: amyloid-beta (Homo sapiens, UniProt P05067); assay: Binding affinity to amyloid-beta in AD brain homogenate; conditions: non-radioactive derivatives; for IC50: human AD brain homogenate
amyloid-beta, sequence (P05067 672-711 limits assumed): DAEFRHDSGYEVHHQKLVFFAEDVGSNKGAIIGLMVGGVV
Protocol: as §1, with “beta-amyloid” for “Tau”, “beta-amyloid” for “Tau-reference”, “beta-amyloid binder” for “Tau-binder”

[3] = target: T1, MAO A (Mus musculus, UniProt Q64133); assay: MAO A 18F-FEH competition assay in mouse brain homogenate; assay type: binding; design: Low affinity to MAO A (IC50 in mouse brain homogenate): key to the marks not given beside the values; conditions: for IC50: 18F-FEH competition, read-out: IC50 MAO A in mouse brain homogenate
T1 construct: from tissue; host or cells: whole mouse brain homogenate
T1 sequence (Q64133 1-526): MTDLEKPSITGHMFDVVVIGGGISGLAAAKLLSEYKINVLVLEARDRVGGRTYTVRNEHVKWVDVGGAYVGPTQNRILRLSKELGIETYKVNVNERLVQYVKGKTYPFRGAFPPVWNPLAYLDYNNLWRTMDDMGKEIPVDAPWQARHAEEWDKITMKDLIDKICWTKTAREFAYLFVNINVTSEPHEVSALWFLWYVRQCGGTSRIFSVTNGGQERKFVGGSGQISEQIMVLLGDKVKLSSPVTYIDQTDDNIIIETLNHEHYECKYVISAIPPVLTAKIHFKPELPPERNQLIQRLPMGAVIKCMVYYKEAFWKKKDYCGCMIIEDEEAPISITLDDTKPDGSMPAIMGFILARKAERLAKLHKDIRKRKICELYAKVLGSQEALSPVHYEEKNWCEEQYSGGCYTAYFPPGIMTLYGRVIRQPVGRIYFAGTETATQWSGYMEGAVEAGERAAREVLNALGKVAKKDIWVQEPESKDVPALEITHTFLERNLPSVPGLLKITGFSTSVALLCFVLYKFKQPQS

[4] = target: T2, MAO B (Homo sapiens, UniProt P27338); assay: MAO B 18F-fluoro deprenyl competition assay in human HC brain homogenate; assay type: binding; design: Low affinity to MAO B (IC50 in HC homogenate): key: −: poor; ∘: moderate; +: good; ++: very good; +++: excellent
T2 construct: 20 μg of human brain homogenate (without AD pathology); from tissue; host or cells: human brain homogenate without AD pathology (healthy control)
T2 sequence (P27338 1-520): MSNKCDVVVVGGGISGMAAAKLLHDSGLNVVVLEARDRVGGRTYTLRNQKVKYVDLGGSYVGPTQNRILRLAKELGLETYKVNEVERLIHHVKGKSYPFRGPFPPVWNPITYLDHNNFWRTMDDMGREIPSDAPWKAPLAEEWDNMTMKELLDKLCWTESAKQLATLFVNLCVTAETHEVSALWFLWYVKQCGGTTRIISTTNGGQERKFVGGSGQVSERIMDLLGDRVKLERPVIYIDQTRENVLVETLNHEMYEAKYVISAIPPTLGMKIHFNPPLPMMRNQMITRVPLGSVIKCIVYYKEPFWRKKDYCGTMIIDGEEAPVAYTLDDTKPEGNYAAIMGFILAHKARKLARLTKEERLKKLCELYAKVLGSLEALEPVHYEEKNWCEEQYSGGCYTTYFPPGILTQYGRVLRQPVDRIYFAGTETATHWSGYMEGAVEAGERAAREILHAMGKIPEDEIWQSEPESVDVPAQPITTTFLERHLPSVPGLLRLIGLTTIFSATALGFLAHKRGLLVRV
Protocol: The samples were shaken at 110 rpm for 45 min at 37° C. Samples were then filtered through GF/B 96 well filter plates and washed twice with 300 μL assay buffer (PBS containing 0.1% BSA and 2% DMSO). Thereafter, filter plates were sealed and a Fuji Film Imaging Plate (BAS-SR2025) was placed on top. The imaging plate was analyzed after overnight exposition using a Fuji Film BAS-5000. […] IC50 values were calculated by Prism V6 (GraphPad) setting total binding to 100%.

[5] = PK studies in healthy mice (PET); assay type: in vivo, NMRI mice; design: Good brain uptake / Fast washout from healthy brain: key: −: poor; ∘: moderate; +: good; ++: very good; +++: excellent; conditions: for Low or minor de-fluorination / Fast washout from healthy brain / Low retention in healthy brain / Good brain uptake: grade; for Low or minor de-fluorination: bone uptake in healthy mice at 60 min; for Fast washout from healthy brain: healthy mice; for Low retention in healthy brain: healthy mice 60 min after iv injection; for Good brain uptake: healthy mice after iv injection; for De-fluorination in mice (in words): mouse, in vivo; on Good brain uptake: key: −: poor; ∘: moderate; +: good; ++: very good; +++: excellent; on Low or minor de-fluorination: key: −: poor; ∘: moderate; +: good; ++: very good; +++: excellent; on Low retention in healthy brain: key: −: poor; ∘: moderate; +: good; ++: very good; +++: excellent
Protocol: NMRI mice (weight range 25-35 g) were injected intravenously with the ^18F-labeled compounds. Up to 150 μL of 1×PBS solution with 10%-15% EtOH or dilution medium ([…]) containing the ^18F-labeled compound (2-10 MBq) were injected. Anesthesia with isoflurane was induced before injection of the tracer and maintained during the image acquisition period. PET scans were performed using a SIEMENS INVEON small animal PET/CT scanner (Siemens, Knoxville, Tenn.). PET acquisition was started immediately before the radioactive dose was injected into the animal through the tail vein. Images were generated as dynamic scans for 60 minutes.
The peak uptake in the brain was set to 100% and washout curves were generated to evaluate the clearance of the activity from the normal brain (FIG. 2).

[6] = grade, non-radioactive derivatives

Tau, sequence (P10636 623-708 limits assumed): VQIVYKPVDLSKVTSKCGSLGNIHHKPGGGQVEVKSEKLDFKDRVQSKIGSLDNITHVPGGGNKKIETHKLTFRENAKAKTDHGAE

Compound	High affinity to Tau (IC50 in AD brain homogenate) ([1]; grade)	IC50 [1]	Low affinity to amyloid-beta (IC50 in AD brain homogenate) ([2]; grade)	IC50 [2]	IC50 ([3]; non-radioactive derivatives)	Low affinity to MAO A (IC50 in mouse brain homogenate) [3, 6]	Fold higher MAO A IC50 than compound 18F-1 ([3]; whole mouse brain homogenate)	Fold higher MAO A IC50 than compound 18F-2 ([3]; whole mouse brain homogenate)	IC50 [4]	Fold higher MAO B IC50 than compound 18F-1 ([4]; HC brain homogenate)	Low affinity to MAO B (IC50 in HC homogenate) [4, 6]	Low or minor de-fluorination [5]	Fast washout from healthy brain [5]	Low retention in healthy brain [5]	Good brain uptake [5]	Fold faster washout from healthy brain than 18F-1 ([5]; mice)	Fold lower long-term retention in healthy brain than 18F-1 ([5]; mice)	Fold lower long-term retention in healthy brain than 18F-2 ([5]; mice)	De-fluorination in mice (in words) [5]
[18F]c1cc(-c2ccc3c(n2)[nH]c2ccncc23)ccn1 [^18F-3a]	+++	< 2 nM	+++^a)	> 1000 nM	1400 nM	+++	64 fold	3 fold	> 1000 nM	> 5 fold	+++	+++	++	++	++	1.6 fold	2.7 fold	2 fold	No de-fluorination
[18F]c1ccc(-c2ccc3c(c2)[nH]c2ccncc23)cn1 [^18F-1]		< 2 nM		> 1000 nM	22 nM				170 nM					−	++				
[18F]c1ccc(-c2ccc3c(n2)[nH]c2ccncc23)cn1 [^18F-2]		< 2 nM		> 1000 nM	475 nM				> 1000 nM			−	++		++				De-fluorination in mice was found
